Experimental data reported in US8614201B2 (Janssen Pharmaceutica NV, priority 2009, dated 2013).

Target: Human TRPA1 (Homo sapiens, UniProt O75762)
Experiment: Alternative TRPA1 Ca2+ fluorometry assay (hTRPA1/TREx-HEK293 cells, Fluo-4, FDSS 6000)
Format: cell-based
Set-up: expressed in transfected cells
Settings: Fluo-4-AM, agonist 6,11-dihydro-5H-dibenzo[b,e]azepine-10-carboxylic acid methyl ester 25 nM, procedure used for Examples 184, 190 to 192, 194 to 316
Experimental: In alternative embodiments, the assay was performed using the following procedure for Examples 184, 190 to 192, and 194 to 316:
The human TRPA1 gene was cloned into the pT-Rex-Dest30 inducible vector and stably transfected in T-Rex™-293 cells (Invitrogen, Merelbeke, Belgium). This tetracycline inducible hTRPA1 expression system was used in order to prevent CA^2+ overload in the cultured cells due to sustained TRPA1 expression. hTRPA1/TREx-HEK293 cells (referred to as jTRPA1 cells in the following text) were maintained under standard sterile cell culture conditions. The culture medium for the jTRPA1-HEK cells was DMEN (Gibco BRL, Invitrogen, Merelbeke, Belgium) supplemented with 5 g/l gengticin (Gibco), 5 mL/l blasticidin (Invitorgen), 14.6 g/l L-Glutamine (200 mMl; Gibco), 5 g/l penicillin/streptomycin (5.10-6 IU/I, Gibco), 5.5 g/l pyruvic acid (Gibco) and 10% foetal calf serum (Hyclone, Logan Utah, USA).
For Ca^2+ fluorometry experiments, hTRPA1-HEK cells were resuspended in HBSS seeding medium: HBSS (with CaCl2 and MgCl2: Gibco) supplemented with 14.6 g/l L-Glutamine (200 mM; Gibco), 5 g/l penicillin/streptomycin (5.10-6 IU/l. Gibco), 5.5 g/l pyruvic acid (Gibco) and 10% foetal calf serum (heat inactivated for 30 minutes at 56° C.; Hyclone, Logan Utah, USA). The cells were seeded in poly-D-lysine-coated 384-well round bottom polypropylene plates (Costar Corning, Data Packaging, Cambridge Mass., USA) at 12000 cells/well. Fifty ng/ml tetracycline was added to induce the hTRPA1 expression 24 h before the experiment.
The cells were loaded with 5 mg/l Fluo-4-AM (Molecular Probes, Invitorgen, Merelbeke, Belgium) dissolved in HBSS seeding medium supplemented with 0.7 g/l Probenecid (Sigma) and incubated for 1 h at 37° C. and subsequently at 20° C. for 1 to 2 h. The fluorescence was measured in the FDSS 6000 imaging based plate reader (Hamamutsu Photonics K.K., Hamamutsu City, Japan). The excitation wavelength was 488 nm and the emission wavelength 540 nm. After a control period of 12 seconds the inventive compounds were added and the Ca^2+ signal was measured within 14 minutes after application. Finally, a TRPA1 agonist, 6,11-dihydro-5H-dibenzo[b,e]azepine-10-carboxylic acid methyl ester, was added at a final concentration of 25 nM. The emission ratio was calculated by dividing the emission signal (Em540) by the first EM540 signal of the control period to compensate for the background fluorescence. […] For intracellular Ca^2+ measurements, a compound stock solution (10 to 100 mM) was further diluted in DMSO in order to obtain a final 1% DMSO concentration in the extracellular solution.

Chain of Human TRPA1 (O75762 whole entry): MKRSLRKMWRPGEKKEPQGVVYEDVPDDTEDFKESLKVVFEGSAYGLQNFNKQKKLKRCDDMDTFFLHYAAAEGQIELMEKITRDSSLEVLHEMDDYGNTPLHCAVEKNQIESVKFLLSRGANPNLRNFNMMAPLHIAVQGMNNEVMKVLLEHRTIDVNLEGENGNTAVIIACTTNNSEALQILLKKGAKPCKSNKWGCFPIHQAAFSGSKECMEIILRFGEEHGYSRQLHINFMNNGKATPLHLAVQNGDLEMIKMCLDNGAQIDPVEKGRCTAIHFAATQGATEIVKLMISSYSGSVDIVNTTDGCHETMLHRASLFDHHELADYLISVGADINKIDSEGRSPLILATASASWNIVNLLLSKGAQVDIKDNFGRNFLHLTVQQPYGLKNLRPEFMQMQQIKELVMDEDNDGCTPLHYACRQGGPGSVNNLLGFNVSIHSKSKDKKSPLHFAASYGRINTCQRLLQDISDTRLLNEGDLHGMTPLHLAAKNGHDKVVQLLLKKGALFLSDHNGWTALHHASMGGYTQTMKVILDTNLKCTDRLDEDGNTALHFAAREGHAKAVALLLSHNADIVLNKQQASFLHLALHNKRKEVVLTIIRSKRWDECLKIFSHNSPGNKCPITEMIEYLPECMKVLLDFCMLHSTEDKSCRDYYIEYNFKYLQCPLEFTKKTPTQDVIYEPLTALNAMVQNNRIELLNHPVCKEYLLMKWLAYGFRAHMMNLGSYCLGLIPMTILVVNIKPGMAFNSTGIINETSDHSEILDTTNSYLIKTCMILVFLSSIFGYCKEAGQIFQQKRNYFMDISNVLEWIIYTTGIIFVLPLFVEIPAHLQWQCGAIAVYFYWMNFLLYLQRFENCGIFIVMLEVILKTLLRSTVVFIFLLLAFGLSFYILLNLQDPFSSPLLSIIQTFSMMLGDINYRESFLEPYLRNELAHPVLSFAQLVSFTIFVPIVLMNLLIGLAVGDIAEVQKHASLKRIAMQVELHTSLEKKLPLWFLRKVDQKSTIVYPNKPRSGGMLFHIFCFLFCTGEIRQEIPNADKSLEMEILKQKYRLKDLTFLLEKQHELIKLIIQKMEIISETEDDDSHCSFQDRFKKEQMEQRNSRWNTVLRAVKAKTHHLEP

| Structure (SMILES) | IC50 [µM] |
| --- | --- |
| C#CCNc1nc(CNC(=O)[C@@H]2CCCN2S(=O)(=O)c2ccc(F)cc2)cc(-c2ccc(Br)cc2)n1 [Example 209, 1-(4-Fluoro-benzenesulfonyl)-pyrrolidine-2S-carboxylic acid [6-(4-bromo-phenyl)-2-prop-2-ynylamino-pyrimidin-4-ylmethyl]-amide] | 1 |
| CCCCNc1nc(CNC(=O)[C@@H]2CCCN2S(=O)(=O)c2ccc(F)cc2)cc(-c2ccc(C(F)(F)F)cc2)n1 [Example 310, 1-(4-Fluoro-benzenesulfonyl)-pyrrolidine-2S-carboxylic acid [2-butylamino-6-(4-trifluoromethyl-phenyl)-pyrimidin-4-ylmethyl]-amide] | 0.407 |
| CC(=O)c1ccc(N2CCN(c3nc(CNC(=O)[C@@H]4CCCN4S(=O)(=O)c4ccc(F)cc4)cc(-c4ccc(C(F)(F)F)cc4)n3)CC2)cc1 [Example 309, 1-(4-Fluoro-benzenesulfonyl)-pyrrolidine-2S-carboxylic acid [2-[4-(4-acetyl-phenyl)-piperazin-1-yl]-6-(4-trifluoromethyl-phenyl)-pyrimidin-4-ylmethyl]-amide] | 1.17 |
| O=C(NCc1cc(-c2ccc3c(c2)OCO3)nc(N2CCN(c3ccccn3)CC2)n1)[C@@H]1CCCN1S(=O)(=O)c1ccc(F)cc1 [Example 206, 1-(4-Fluoro-benzenesulfonyl)-pyrrolidine-2S-carboxylic acid [6-benzo[1,3]dioxol-5-yl-2-(4-pyridin-2-yl-piperazin-1-yl)-pyrimidin-4-ylmethyl]-amide] | 4.47 |
| O=C(NCc1cc(-c2ccc(C(F)(F)F)cc2)nc(N2CCN(c3ccccc3F)CC2)n1)[C@@H]1CCCN1S(=O)(=O)c1ccc(F)c(F)c1 [Example 258, 1-(3,4-Difluoro-benzenesulfonyl)-pyrrolidine-2S-carboxylic acid [2-[4-(2-fluoro-phenyl)-piperazin-1-yl]-6-(4-trifluoromethyl-phenyl)-pyrimidin-4-ylmethyl]-amide] | 0.324 |
| O=C(NCc1cc(-c2ccc(C(F)(F)F)cc2)nc(N2CCN(c3ccccc3F)CC2)n1)[C@@H]1CCCN1S(=O)(=O)c1cccc(F)c1 [Example 270, 1-(3-Fluoro-benzenesulfonyl)-pyrrolidine-2S-carboxylic acid [2-[4-(2-fluoro-phenyl)-piperazin-1-yl]-6-(4-trifluoromethyl-phenyl)-pyrimidin-4-ylmethyl]-amide] | 0.692 |
| Cc1cc(C)cc(-c2cc(CNC(=O)[C@@H]3CCCN3S(=O)(=O)c3ccc(F)cc3)nc(N3CCN(c4ccccc4F)CC3)n2)c1 [Example 236, 1-(4-Fluoro-benzenesulfonyl)-pyrrolidine-2S-carboxylic acid {6-(3,5-dimethyl-phenyl)-2-[4-(2-fluoro-phenyl)-piperazin-1-yl]-pyrimidin-4-ylmethyl}-amide] | > 10 |
| O=C(NCc1cc(-c2ccc(Br)cc2)nc(NCc2cccnc2)n1)[C@@H]1CCCN1S(=O)(=O)c1ccc(F)cc1 [Example 219, 1-(4-Fluoro-benzenesulfonyl)-pyrrolidine-2S-carboxylic acid {6-(4-bromo-phenyl)-2-[(pyridin-3-ylmethyl)-amino]-pyrimidin-4-ylmethyl}-amide] | ~2.69 |
| O=C(NCc1cc(-c2ccc3c(c2)OCO3)nc(NC2CCCC2)n1)[C@@H]1CCCN1S(=O)(=O)c1ccc(F)cc1 [Example 204, 1-(4-Fluoro-benzenesulfonyl)-pyrrolidine-2S-carboxylic acid (6-benzo[1,3]dioxol-5-yl-2-cyclopentylamino-pyrimidin-4-ylmethyl)-amide] | ~2.69 |
| O=C(NCc1cc(-c2ccc3c(c2)OCO3)nc(N2CCOCC2)n1)[C@@H]1CCCN1S(=O)(=O)c1ccc(F)cc1 [Example 207, 1-(4-Fluoro-benzenesulfonyl)-pyrrolidine-2S-carboxylic acid (6-benzo[1,3]dioxol-5-yl-2-morpholin-4-yl-pyrimidin-4-ylmethyl)-amide] | 9.12 |
| Cc1ccc(F)cc1S(=O)(=O)N1CCC[C@H]1C(=O)NCc1cc(-c2ccc(C(F)(F)F)cc2)nc(N2CCN(c3ccccc3F)CC2)n1 [Example 256, 1-(5-Fluoro-2-methyl-benzenesulfonyl)-pyrrolidine-2-carboxylic acid [2-[4-(2-fluoro-phenyl)-piperazin-1-yl]-6-(4-trifluoromethyl-phenyl)-pyrimidin-4-ylmethyl]-amide] | > 10 |
| O=C(NCc1cc(-c2ccc(C(F)(F)F)cc2)nc(N2CCN(Cc3ccc4c(c3)OCO4)CC2)n1)[C@@H]1CCCN1S(=O)(=O)c1ccc(F)cc1 [Example 297, 1-(4-Fluoro-benzenesulfonyl)-pyrrolidine-2S-carboxylic acid [2-(4-benzo[1,3]dioxol-5-ylmethyl-piperazin-1-yl)-6-(4-trifluoromethyl-phenyl)-pyrimidin-4-ylmethyl]-amide] | 0.355 |
| O=C(NCc1cc(-c2ccc(C(F)(F)F)cc2)nc(N2CCC[C@H]2CO)n1)[C@@H]1CCCN1S(=O)(=O)c1ccc(F)cc1 [Example 190, 1-(4-Fluoro-benzenesulfonyl)-pyrrolidine-2S-carboxylic acid [2-(2S-hydroxymethyl-pyrrolidin-1-yl)-6-(4-trifluoromethyl-phenyl)-pyrimidin-4-ylmethyl]-amide] | ~1.95 |
| CCOC(=O)C1CCN(c2nc(CNC(=O)[C@@H]3CCCN3S(=O)(=O)c3ccc(F)cc3)cc(-c3ccc4c(c3)OCO4)n2)CC1 [Example 205, 1-[4-Benzo[1,3]dioxol-5-yl-6-({[1-(4-fluoro-benzenesulfonyl)-pyrrolidine-2S-carbonyl]-amino}-methyl)-pyrimidin-2-yl]-piperidine-4-carboxylic acid ethyl ester] | ~1.78 |

The next lines start with the values.

| IC50 [µM] | Structure (SMILES) |
| --- | --- |
| > 10 | O=C(NCc1cc(-c2ccc(C(F)(F)F)cc2)nc(N2CCN(c3ccccc3F)CC2)n1)[C@@H]1CCCN1S(=O)(=O)c1cc(Cl)ccc1F [Example 257, 1-(5-Chloro-2-fluoro-benzenesulfonyl)-pyrrolidine-2S-carboxylic acid [2-[4-(2-fluoro-phenyl)-piperazin-1-yl]-6-(4-trifluoromethyl-phenyl)-pyrimidin-4-ylmethyl]-amide] |
| > 10 | Cc1cccc(Cl)c1S(=O)(=O)N1CCC[C@H]1C(=O)NCc1cc(-c2ccc(C(F)(F)F)cc2)nc(N2CCN(c3ccccc3F)CC2)n1 [Example 277, 1-(2-Chloro-6-methyl-benzenesulfonyl)-pyrrolidine-2S-carboxylic acid [2-[4-(2-fluoro-phenyl)-piperazin-1-yl]-6-(4-trifluoromethyl-phenyl)-pyrimidin-4-ylmethyl]-amide] |
| > 10 | Cc1ccc(S(=O)(=O)N2CCC[C@H]2C(=O)NCc2cc(-c3ccc(C(F)(F)F)cc3)nc(N3CCN(c4ccccc4F)CC3)n2)cc1Cl [Example 280, 1-(3-Chloro-4-methyl-benzenesulfonyl)-pyrrolidine-2S-carboxylic acid [2-[4-(2-fluoro-phenyl)-piperazin-1-yl]-6-(4-trifluoromethyl-phenyl)-pyrimidin-4-ylmethyl]-amide] |
| > 10 | O=C(NCc1cc(-c2ccc(C(F)(F)F)cc2)nc(N2CCN(c3ccccc3F)CC2)n1)[C@@H]1CCCN1S(=O)(=O)c1ccccc1Cl [Example 268, 1-(2-Chloro-benzenesulfonyl)-pyrrolidine-2S-carboxylic acid [2-[4-(2-fluoro-phenyl)-piperazin-1-yl]-6-(4-trifluoromethyl-phenyl)-pyrimidin-4-ylmethyl]-amide] |
| 0.191 | O=C(NCc1cc(-c2ccc(C(F)(F)F)cc2)nc(N2CCN(c3ccccc3F)CC2)n1)[C@@H]1CCCN1S(=O)(=O)c1ccc(Cl)s1 [Example 263, 1-(5-Chloro-thiophene-2-sulfonyl)-pyrrolidine-2S-carboxylic acid [2-[4-(2-fluoro-phenyl)-piperazin-1-yl]-6-(4-trifluoromethyl-phenyl)-pyrimidin-4-ylmethyl]-amide] |
| ~0.436 | O=C(NCc1cc(-c2ccc(C(F)(F)F)cc2)nc(N2CCN(c3ccccc3F)CC2)n1)[C@@H]1CCCN1S(=O)(=O)c1ccccc1 [Example 272, 1-Benzenesulfonyl-pyrrolidine-2S-carboxylic acid [2-[4-(2-fluoro-phenyl)-piperazin-1-yl]-6-(4-trifluoromethyl-phenyl)-pyrimidin-4-ylmethyl]-amide] |
